# Molecular target: T1, Prostaglandin G/H synthase 2 (Homo sapiens) (UniProt P35354)
# T1 sequence (whole entry): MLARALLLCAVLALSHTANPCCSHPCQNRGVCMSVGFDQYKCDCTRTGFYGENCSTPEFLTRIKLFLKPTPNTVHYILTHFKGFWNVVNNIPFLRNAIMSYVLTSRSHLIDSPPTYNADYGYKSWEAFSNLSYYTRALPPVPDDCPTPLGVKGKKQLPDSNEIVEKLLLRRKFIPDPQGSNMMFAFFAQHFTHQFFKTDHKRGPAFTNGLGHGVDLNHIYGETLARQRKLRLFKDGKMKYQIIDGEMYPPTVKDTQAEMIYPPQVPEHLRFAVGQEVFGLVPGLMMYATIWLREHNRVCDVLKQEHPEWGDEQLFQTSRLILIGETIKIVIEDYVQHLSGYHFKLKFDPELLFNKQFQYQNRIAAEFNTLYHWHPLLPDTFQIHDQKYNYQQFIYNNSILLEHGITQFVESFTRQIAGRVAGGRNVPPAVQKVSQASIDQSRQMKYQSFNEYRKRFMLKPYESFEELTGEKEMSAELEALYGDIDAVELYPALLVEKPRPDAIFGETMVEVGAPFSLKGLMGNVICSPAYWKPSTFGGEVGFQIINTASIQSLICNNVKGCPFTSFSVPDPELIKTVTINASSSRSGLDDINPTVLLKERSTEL
# Conditions: dose 2-10 nM, time 1.0 min
row,inhibition,Structure (SMILES)
1,< 98%,CN1C/C(=C\c2cccs2)C2=NN(c3ccccc3)C(c3cccs3)C2C1 (stereo not given)
2,< 98%,CN1C/C(=C\c2ccc([N+](=O)[O-])s2)C2=NN(c3ccccc3)C(c3ccc([N+](=O)[O-])s3)C2C1 (stereo not given)
3,< 98%,Cc1sc(/C=C2\CN(C)CC3C2=NN(c2ccccc2)C3c2cc(F)c(C)s2)cc1F (stereo not given)
4,< 98%,Cc1ccc(/C=C2\CN(C)CC3C2=NN(c2ccccc2)C3c2ccc(C)s2)s1 (stereo not given)
5,< 98%,Cc1csc(/C=C2\CN(C)CC3C2=NN(c2ccccc2)C3c2cc(C)cs2)c1 (stereo not given)
6,< 98%,CN1C/C(=C\c2ccc(F)s2)C2=NN(c3ccccc3)C(c3ccc(F)s3)C2C1 (stereo not given)
7,< 98%,CN1C/C(=C\c2ccc(Br)s2)C2=NN(c3ccccc3)C(c3ccc(Br)s3)C2C1 (stereo not given)
8,< 98%,CCc1ccc(/C=C2\CN(C)CC3C2=NN(c2ccccc2)C3c2ccc(CC)s2)s1 (stereo not given)
9,< 98%,CN1C/C(=C\c2ccc(O)s2)C2=NN(c3ccccc3)C(c3ccc(O)s3)C2C1 (stereo not given)
10,< 98%,CN1C/C(=C\c2ccc(Cl)s2)C2=NN(c3ccccc3)C(c3ccc(Cl)s3)C2C1 (stereo not given)
11,< 98%,Cc1sc(/C=C2\CN(C)CC3C2=NN(c2ccccc2)C3c2cc(Br)c(C)s2)cc1Br (stereo not given)

# Molecular target: T2, Prostaglandin G/H synthase 2 (Homo sapiens, UniProt P35354)
# T2 sequence (P35354 whole entry): T1 sequence (whole entry)
# Assay: Inhibition of COX-2 (unknown origin)
# Conditions: not given
row,IC50,Structure (SMILES)
1,2610 nM,CC(=O)N1N=C(c2nnn(-c3ccc(S(N)(=O)=O)cc3)c2C)CC1c1ccccc1 (stereo not given)
2,8320 nM,CCC(C)C(=O)[C@H]1C(=O)[C@@]2(CC=C(C)C)C[C@H](C[C@H]3[C@@H](C[C@H](C(C)(C)O)C3(C)C)C2=O)C1(C)C (stereo not given in full)
3,5270 nM,CC(C)=CC[C@H]1C[C@@H]2C[C@@H]3[C@@H](C[C@]4(C)C(C)(C)OC[C@]34C)C(=O)[C@](C(=O)c3ccccc3)(C1=O)C2(C)C

# Molecular target: T3, Polyunsaturated fatty acid 5-lipoxygenase (Homo sapiens, UniProt P09917)
# T3 sequence (P09917 whole entry): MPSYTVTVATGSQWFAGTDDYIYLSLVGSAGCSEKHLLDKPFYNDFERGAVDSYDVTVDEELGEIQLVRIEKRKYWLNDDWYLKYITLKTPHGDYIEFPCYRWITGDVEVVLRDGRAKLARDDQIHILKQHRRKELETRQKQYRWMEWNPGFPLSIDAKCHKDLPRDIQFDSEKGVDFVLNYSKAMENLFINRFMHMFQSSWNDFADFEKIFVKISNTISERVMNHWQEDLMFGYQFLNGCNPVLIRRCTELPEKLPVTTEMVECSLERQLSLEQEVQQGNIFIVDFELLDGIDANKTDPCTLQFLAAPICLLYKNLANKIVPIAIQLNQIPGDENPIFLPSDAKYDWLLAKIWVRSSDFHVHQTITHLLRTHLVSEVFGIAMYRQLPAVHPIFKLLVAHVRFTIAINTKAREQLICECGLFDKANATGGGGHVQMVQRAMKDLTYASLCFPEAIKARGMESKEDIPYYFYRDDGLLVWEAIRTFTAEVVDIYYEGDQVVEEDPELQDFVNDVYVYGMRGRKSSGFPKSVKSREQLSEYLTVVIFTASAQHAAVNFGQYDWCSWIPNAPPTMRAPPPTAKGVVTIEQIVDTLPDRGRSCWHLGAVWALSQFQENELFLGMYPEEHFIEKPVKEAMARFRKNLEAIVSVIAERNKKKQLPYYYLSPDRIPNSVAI
# Assay: Inhibition of 5-LOX (unknown origin) using linoleic acid as substrate preincubated for 5 mins followed by substrate addition by absorbance based analysis
# Conditions: not given
row,IC50,Structure (SMILES)
1,380 nM,Cc1ccc(-c2cs/c(=N\C(=O)c3cccs3)n2-c2ccccc2)cc1
2,380 nM,O=C(c1cccs1)c1sc(N(c2ccccc2)c2ccccc2)nc1-c1ccc(C(F)(F)F)cc1
3,380 nM,O=C(c1cccs1)c1sc(N(c2ccccc2)c2ccccc2)nc1-c1ccc([N+](=O)[O-])cc1
4,380 nM,N#Cc1ccc(-c2cs/c(=N\C(=O)c3cccs3)n2-c2ccccc2)cc1
5,380 nM,Cc1ccc(-c2nc(N3CCOCC3)sc2C(=O)c2cccs2)cc1
6,380 nM,O=C(/N=c1\scc(-c2ccc(F)cc2)n1-c1ccccc1)c1cccs1
7,380 nM,O=C(c1cccs1)c1sc(N2CCOCC2)nc1-c1ccc(F)cc1
8,380 nM,O=C(c1cccs1)c1sc(N(c2ccccc2)c2ccccc2)nc1-c1ccc(F)cc1
9,380 nM,O=C(c1cccs1)c1sc(N(c2ccccc2)c2ccccc2)nc1-c1ccccc1
10,380 nM,O=C(c1cccs1)c1sc(N2CCOCC2)nc1-c1ccc(C(F)(F)F)cc1
11,380 nM,N#Cc1ccc(-c2nc(N3CCOCC3)sc2C(=O)c2cccs2)cc1
12,380 nM,O=C(/N=c1\scc(-c2ccc([N+](=O)[O-])cc2)n1-c1ccccc1)c1cccs1
13,380 nM,O=C(c1cccs1)c1sc(N2CCOCC2)nc1-c1ccccc1
14,380 nM,N#Cc1ccc(-c2nc(N(c3ccccc3)c3ccccc3)sc2C(=O)c2cccs2)cc1
15,380 nM,Cc1ccc(-c2nc(N(c3ccccc3)c3ccccc3)sc2C(=O)c2cccs2)cc1
16,380 nM,O=C(/N=c1\scc(-c2ccc(C(F)(F)F)cc2)n1-c1ccccc1)c1cccs1
17,380 nM,O=C(c1cccs1)c1sc(N2CCOCC2)nc1-c1ccc([N+](=O)[O-])cc1
18,380 nM,O=C(/N=c1/scc(-c2ccccc2)n1-c1ccccc1)c1cccs1
19,380 nM,O=C(c1cccs1)c1sc(Nc2ccccc2)nc1-c1ccc(F)cc1

# Molecular target: T2, Prostaglandin G/H synthase 2
# Assay: Inhibition of COX-2 (unknown origin) by colorimetric assay
# Conditions: not given
row,IC50,Structure (SMILES)
1,1520 nM,CCCCNc1cc(C(=O)N/N=c2\scc(-c3ccc(OC)cc3)n2-c2ccccc2)cc(S(N)(=O)=O)c1Oc1ccccc1
2,1520 nM,CCCCNc1cc(C(=O)N/N=c2\scc(-c3ccc(Cl)cc3)n2-c2ccccc2)cc(S(N)(=O)=O)c1Oc1ccccc1
3,1520 nM,CCCCNc1cc(C(=O)N/N=c2\scc(-c3ccc(C)cc3)n2-c2ccc(Br)cc2)cc(S(N)(=O)=O)c1Oc1ccccc1
4,1520 nM,CCCCNc1cc(C(=O)N/N=c2\scc(-c3ccc(C)cc3)n2-c2ccccc2)cc(S(N)(=O)=O)c1Oc1ccccc1

# Second part, the compound before the results:
row,Structure (SMILES),IC50
1,C=CCn1c(-c2ccc(Cl)cc2)cs/c1=N\NC(=O)c1cc(NCCCC)c(Oc2ccccc2)c(S(N)(=O)=O)c1,1520 nM
2,C=CCn1c(-c2ccc(OC)cc2)cs/c1=N\NC(=O)c1cc(NCCCC)c(Oc2ccccc2)c(S(N)(=O)=O)c1,1520 nM
3,C=CCc1ccc(-n2c(-c3cc(NCCCC)c(Oc4ccccc4)c(S(N)(=O)=O)c3)n[nH]c2=S)cc1,4590 nM
4,CCCCNc1cc(C(=O)N/N=c2\scc(-c3ccc(Cl)cc3)n2-c2ccc(Br)cc2)cc(S(N)(=O)=O)c1Oc1ccccc1,1520 nM
5,CCCCNc1cc(C(=O)N/N=c2\scc(-c3ccc(OC)cc3)n2-c2ccc(Br)cc2)cc(S(N)(=O)=O)c1Oc1ccccc1,1520 nM
6,C=CCn1c(-c2ccc(C)cc2)cs/c1=N\NC(=O)c1cc(NCCCC)c(Oc2ccccc2)c(S(N)(=O)=O)c1,1520 nM
7,CCCCNc1cc(C(=O)n2nc(C)cc2C)cc(S(N)(=O)=O)c1Oc1ccccc1,4750 nM
8,CCCCNc1cc(-c2n[nH]c(=S)n2-c2ccccc2)cc(S(N)(=O)=O)c1Oc1ccccc1,280 nM
9,CCCCNc1cc(C(=O)N2N=C(C)CC2=O)cc(S(N)(=O)=O)c1Oc1ccccc1,5110 nM
10,CCCCNc1cc(-c2n[nH]c(=S)o2)cc(S(N)(=O)=O)c1Oc1ccccc1,5730 nM

# Molecular target: T4, Polyunsaturated fatty acid lipoxygenase ALOX15 (Homo sapiens, UniProt P16050)
# T4 sequence (P16050 whole entry): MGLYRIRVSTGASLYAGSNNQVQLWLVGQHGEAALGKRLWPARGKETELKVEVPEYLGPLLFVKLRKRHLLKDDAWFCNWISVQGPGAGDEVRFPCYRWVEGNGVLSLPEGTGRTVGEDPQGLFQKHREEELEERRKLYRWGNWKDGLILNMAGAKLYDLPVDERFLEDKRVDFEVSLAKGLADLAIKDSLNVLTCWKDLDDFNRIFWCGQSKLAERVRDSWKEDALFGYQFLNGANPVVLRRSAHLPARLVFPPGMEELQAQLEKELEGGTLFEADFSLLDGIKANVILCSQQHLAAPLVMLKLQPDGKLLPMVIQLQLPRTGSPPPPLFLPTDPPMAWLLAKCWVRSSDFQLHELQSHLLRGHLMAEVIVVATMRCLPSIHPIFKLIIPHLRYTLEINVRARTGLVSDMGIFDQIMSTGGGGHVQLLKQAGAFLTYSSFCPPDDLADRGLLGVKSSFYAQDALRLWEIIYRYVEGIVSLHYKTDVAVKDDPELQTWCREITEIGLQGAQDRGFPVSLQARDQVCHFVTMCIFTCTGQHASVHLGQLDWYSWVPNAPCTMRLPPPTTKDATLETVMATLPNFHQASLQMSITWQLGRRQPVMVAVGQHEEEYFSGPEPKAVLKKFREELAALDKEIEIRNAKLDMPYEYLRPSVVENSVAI
# Assay: Inhibition of 15-LOX (unknown origin)
# Conditions: not given
row,IC50,Structure (SMILES)
1,3110 nM,Cc1nnc(/N=C2\NC(=O)/C(=C/c3ccc(F)cc3)S2)s1
2,3360 nM,Cc1nnc(/N=C2\NC(=O)/C(=C/c3ccsc3)S2)s1
3,3110 nM,Cc1nnc(/N=C2\NC(=O)/C(=C/c3ccc(Cl)cc3)S2)s1
4,3110 nM,Cc1nnc(/N=C2\NC(=O)/C(=C/c3ccc(O)cc3)S2)s1
5,3360 nM,Cc1nnc(/N=C2\NC(=O)/C(=C/C=C/c3ccccc3)S2)s1
6,3360 nM,Cc1nnc(/N=C2\NC(=O)/C(=C/C3CCCCC3)S2)s1
7,3360 nM,Cc1nnc(/N=C2\NC(=O)/C(=C/c3cccnc3)S2)s1
8,3110 nM,Cc1nnc(/N=C2\NC(=O)/C(=C/c3ccc(C(C)C)cc3)S2)s1
9,2540 nM,Cc1nnc(/N=C2\NC(=O)CS2)s1
10,3110 nM,Cc1nnc(/N=C2\NC(=O)/C(=C/c3ccc(N(C)C)cc3)S2)s1
11,2540 nM,Cc1ccc(-c2nnc(/N=C3\NC(=O)CS3)s2)cc1
12,2540 nM,O=C1CS/C(=N/c2nnc(-c3ccccc3O)s2)N1
13,3110 nM,COc1ccc(/C=C2\S/C(=N/c3nnc(C)s3)NC2=O)cc1
14,3110 nM,Cc1nnc(/N=C2\NC(=O)/C(=C/c3ccc(Br)cc3)S2)s1
15,2540 nM,O=C1CS/C(=N/c2nnc(-c3ccc(O)cc3)s2)N1
16,15600 nM,CC(c1cc2ccccc2s1)N(O)C(N)=O (stereo not given) [ZILEUTON]
17,2540 nM,O=C1CS/C(=N/c2nnc(-c3ccc(Br)cc3)s2)N1

# Molecular target: COX-1/COX-2 (Homo sapiens) (UniProt P35354+P23219)
# Assay: Selectivity index, ratio of IC50 for inhibition of COX-1 (unknown origin) to IC50 for inhibition of COX-2 (unknown origin)
# Assay type: protein assay
# Conditions: not given
row,Ratio IC50,Structure (SMILES)
1,1.95,CC(=O)N1N=C(c2nnn(-c3ccc(S(N)(=O)=O)cc3)c2C)CC1c1ccccc1 (stereo not given)
